Measurements as given in publication PMC7857503, “Multivalent lipid targeting by the calcium-independent C2A domain of synaptotagmin-like protein 4/granuphilin” (The Journal of Biological Chemistry, 2020).

Molecular target: T1, Slp-4 C2A domain (synaptotagmin-like protein 4/granuphilin) (Homo sapiens, UniProt Q96C24)
T1 construct: gene SYTL4; C2A domain G352-S494; N-terminal GST cleaved by thrombin; E. coli BL21(DE3); cation-exchange purified, unmodified main peak
T1 sequence (Q96C24 352-494): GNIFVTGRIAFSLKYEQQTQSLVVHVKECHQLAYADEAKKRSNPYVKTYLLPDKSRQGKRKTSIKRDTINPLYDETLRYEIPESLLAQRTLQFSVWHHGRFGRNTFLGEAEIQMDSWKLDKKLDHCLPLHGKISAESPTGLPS
Assay: Trp-to-dansyl FRET, competitive displacement of protein from dansyl-PE liposomes
Format: binding
Conditions: read-out: IC50 for IP6 (μM) ^a

- IC50: 620 ± 80 µM
Structure (SMILES): O=P(O)(O)O[C@H]1[C@H](OP(=O)(O)O)[C@@H](OP(=O)(O)O)[C@H](OP(=O)(O)O)[C@@H](OP(=O)(O)O)[C@H]1OP(=O)(O)O [IP6, D-myo-inositol-(1,2,3,4,5,6)-hexakisphosphate]
